ChEMBL document CHEMBL5584354, “Impact of Conjugation of the Reactive Oxygen Species (ROS)-Generating Catalytic Moiety with Membrane-Active Antimicrobial Peptoids: Promoting Multitarget Mechanism and Enhancing Selectivity” (J Med Chem, 2024)
Converted amounts (≈) assume the structure as drawn. Non-standard residues stand in square brackets, D forms with d. Residues, ends and D or L forms follow the SMILES beside them. *: point of attachment. X1 = NC(=O)[C@H](Cc1c[nH]cn1)NC(=O)CNC(=O)[C@@H](N)CN*; Gly(N(CH2)2(3-indolyl)) = O=C(O)CNCCc1c[nH]c2ccccc12; Nspe = C[C@H](NCC(=O)O)c1ccccc1; Nphe = O=C(O)CNCc1ccccc1; Nlys = NCCCCNCC(=O)O

Key:
[1] = Selectivity index, ratio of HC10 for hemolytic activity in male Sprague-Dawley rat erythrocytes to MIC for antibacterial activity against Escherichia coli ATCC 25922; type: toxicity; details: read-out: Selectivity Index
Escherichia coli = assay: Antibacterial activity against Escherichia coli ATCC 25922 assessed as inhibition of bacterial growth incubated for 24 hrs by broth dilution method; type: functional
Erythrocyte = assay: Hemolytic activity in male Sprague-Dawley rat erythrocytes assessed as concentration required for 10% hemolysis incubated for 1 hr by absorbance based method; type: toxicity, cell-based
[2] = Hemolytic activity in male Sprague-Dawley rat erythrocytes at 25 uM incubated for 1 hr by absorbance based method relative to control; type: toxicity, cell-based, Erythrocyte; details: read-out: Activity
[3] = Hemolytic activity in male Sprague-Dawley rat erythrocytes at 100 uM incubated for 1 hr by absorbance based method relative to control; type: toxicity, cell-based, Erythrocyte; details: read-out: Activity
[4] = Hemolytic activity in male Sprague-Dawley rat erythrocytes assessed as concentration required for 50% hemolysis incubated for 1 hr by absorbance based method; type: toxicity, cell-based, Erythrocyte
Staphylococcus aureus = assay: Antibacterial activity against Staphylococcus aureus ATCC 25923 assessed as inhibition of bacterial growth incubated for 24 hrs by broth dilution method; type: functional
[5] = Hemolytic activity in male Sprague-Dawley rat erythrocytes at 50 uM incubated for 1 hr by absorbance based method relative to control; type: toxicity, cell-based, Erythrocyte; details: read-out: Activity

Row | MIC (Escherichia coli) | MIC (Staphylococcus aureus) | SMILES | selectivity ratio [1] | HC10 (Erythrocyte) | hemolysis at 1 h, 25 µM [2] | hemolysis at 1 h, 100 µM [3] | HC50 at 1 h [4] | hemolysis at 1 h, 50 µM [5]
1 | 12.5 µM (≈ 24.2 µg/mL) | 12.5 µM (≈ 24.2 µg/mL) | C[C@@H](c1ccccc1)N(CC(=O)NC[C@H](N)C(=O)NCC(=O)N[C@@H](Cc1c[nH]cn1)C(N)=O)C(=O)CN(CCCCN)C(=O)CN(C(=O)CN(C(=O)CN(CCCCN)C(=O)CN(C(=O)CN(C(=O)CN(CCCCN)C(=O)CN(C(=O)CN(C(=O)CNCCCCN)[C@@H](C)c1ccccc1)[C@@H](C)c1ccccc1)[C@@H](C)c1ccccc1)[C@@H](C)c1ccccc1)[C@@H](C)c1ccccc1)[C@@H](C)c1ccccc1 (H-[Nlys][Nspe][Nspe][Nlys][Nspe][Nspe][Nlys][Nspe][Nspe][Nlys][Nspe]-X1) | 5 | 62.6 µM | 0.04% | 19.1% | > 100 µM | 6.22%
2 | 12.5 µM (≈ 24.9 µg/mL) | 12.5 µM (≈ 24.9 µg/mL) | C[C@@H](c1ccccc1)N(CC(=O)NCC(=O)NC[C@H](N)C(=O)NCC(=O)N[C@@H](Cc1c[nH]cn1)C(N)=O)C(=O)CN(CCCCN)C(=O)CN(C(=O)CN(C(=O)CN(CCCCN)C(=O)CN(C(=O)CN(C(=O)CN(CCCCN)C(=O)CN(C(=O)CN(C(=O)CNCCCCN)[C@@H](C)c1ccccc1)[C@@H](C)c1ccccc1)[C@@H](C)c1ccccc1)[C@@H](C)c1ccccc1)[C@@H](C)c1ccccc1)[C@@H](C)c1ccccc1 (H-[Nlys][Nspe][Nspe][Nlys][Nspe][Nspe][Nlys][Nspe][Nspe][Nlys][Nspe]G-X1) | 4 | 51.1 µM | 2.02% | 23.2% | > 100 µM | 8.79%
3 | 12.5 µM (≈ 26 µg/mL) | 3.1 µM (≈ 6.44 µg/mL) | C[C@@H](c1ccccc1)N(CC(=O)N(CCCCN)CC(=O)N(CC(=O)N(CC(=O)N(CCCCN)CC(=O)N(CC(=O)N(CC(=O)N(CCCCN)CC(=O)N(CCc1c[nH]c2ccccc12)CC(=O)N(CCc1c[nH]c2ccccc12)CC(N)=O)Cc1ccccc1)Cc1ccccc1)Cc1ccccc1)Cc1ccccc1)C(=O)CN(Cc1ccccc1)C(=O)CN(CCCCN)C(=O)[C@H](Cc1c[nH]cn1)NC(=O)CNC(=O)CN (H-GGH[Nlys][Nphe][Nspe][Nlys][Nphe][Nphe][Nlys][Nphe][Nphe][Nlys][Gly(N(CH2)2(3-indolyl))][Gly(N(CH2)2(3-indolyl))]-NH2) | 1.6 | 20.6 µM | 12.7% | 40.6% | > 100 µM | 23.9%
